From US8796268B2, “Heteroaryls and uses thereof” (Millennium Pharmaceuticals, Inc., priority 2010, dated 2014) come the findings set out here.

For orientation: IC50 means the concentration that gives 50% inhibition. A word on the inhibition: it is how much of the control response was suppressed.

For assay [1], the target named is T1, Human PI3K alpha (Homo sapiens, UniProt P42336).
T1 construct: His (N); host or cells: SF9 insect cells (baculovirus)
As to the kind of experiment: Human PI3K alpha enzyme assay (HTRF). The conditions noted are these: for IC50: read-out: PI3Kalpha IC50. The assay is classed as biochemical. The text has this: (§1) The catalytic subunits of PI3Ks are cloned into either pDEST8(p110 alpha) or pDEST10(p110beta, p110delta, and p110gamma) as N-terminal His tagged fusion proteins using the Gateway system (Invitrogen, catalog#11804-010 for pDEST8 and 11806-015 for pDEST10). The sequences are verified before recombinant protein expression using the Baculovirus Expression System with Gateway® Technology. The accession numbers for the subunits are as follows: • p110 alpha (GB:U79143) • p110beta (GB: S67334) • p110delta (GB: U86453) • p110gamma (GB: X83368) • The regulatory subunits of PI3Ks are cloned into pDEST8 as un-tagged protein using the Gateway system (Catalog#11804-010). The sequences are verified before recombinant protein expression using the Baculovirus Expression System with Gateway® Technology. The accession numbers for the subunits are as following: • p85 alpha (GB: BC030815) • p101(GB: AB028925) • VPS34 (accession number GB:BC033004) is cloned into pDEST20—Thombin as N-terminal GST tagged fusion proteins using the Gateway system (Invitrogen, catalog#11804-013). The sequences are verified before recombinant protein expression using the Baculovirus Expression System with Gateway® Technology.
(§2) For expression of the p110 complexes, the p85 (MOI of 4) is co-infected with p110 alpha, beta, and delta respectively (1MOI) in SF9 cells and harvested at 60 hours post co-infection. P110 gamma was infected at 1 MOI and harvested at 60 hours post infection.
(§3) For purification, PI3Ks are purified by Ni-NTA Agarose (Qiagen #30250) followed by Mono Q 10/100 GL (Ge Healthcare #17-5167-01). VPS34 is purified by Glutathione Sepharose 4 Fast Flow (GE Healthcare #17-5132-03) followed by HiTrap Q (GE Healthcare #17-1153-01).
1) Human PI3K alpha enzyme assay method
(§4) 0.5 uL compounds in DMSO are added to wells of a 384 well microtitre plate (Corning 3575). At room temperature: 10 ul PI3K reaction buffer (50 mM Hepes, 5 mM DTT, 150 mM NaCl, 10 mM beta-glycerophosphate, 10 mM MgCl2, 0.25 mM sodium cholate and 0.001% CHAPS, pH 7.00) containing ATP (25 uM, Promega) is added followed immediately by 10 ul PI3K reaction buffer containing di-C8 P1(4,5)P2 (3.5 uM, CellSignals) and PI3Kalpha (0.4875 nM, Millennium Protein Sciences Group) and the mixture is incubated with shaking at room temperature for 30 minutes. Then 5 ul PI3K stop mix (50 mM Hepes, 5 mM DTT, 150 mM NaCl, 0.01% Tween-20, 15 mM EDTA and 25 nM biotin-PI(3,4,5)P3 (Echelon) is added to quench the reaction followed immediately by addition of 5 ul HTRF detection mix (50 mM Hepes, 5 mM DTT, 150 mM NaCl, 0.01% Tween-20, 40 mM KF, 1.0 nM GST:GRP-1 PH domain (Millennium Protein Sciences Group), 15 nM Streptavidin-XL (CisBio) and 0.375 nM anti-GST Eu++ antibody (CisBio) at pH 7.00). The plates are then incubated for 1 hour at room temperature with shaking and then read on a BMG PheraStar Plus reader.
(§5) For the assay methods described above, test compound percent inhibition, at various concentrations, is calculated relative to control (DMSO and EDTA) treated samples. Compound concentration versus percent inhibition curves are fitted to generate IC50 values. One skilled in the art will appreciate that the values generated either as percentage inhibition at a single concentration or IC50 values are subject to experimental variation.

Assay [2] concerns the target T2, Human PI3K beta (Homo sapiens, UniProt P42338).
T2 construct: His (N); host or cells: SF9 insect cells (baculovirus)
As to the kind of experiment: Human PI3K beta enzyme assay (HTRF). The conditions noted are these: for IC50: read-out: PI3 Kbeta IC50. It counts as biochemical.
Text: as §1, §2, §3, §4
2) Human PI3K beta, delta and gamma isoforms are tested using the procedure described for PI3K alpha above but with the following changes: PI3K beta (5.25 nM), PI3K delta (0.75 nM) and PI3K gamma (5 nM). All isoforms supplied by Millennium Protein Science Group.
as §5
For orientation: TR-FRET usually uses a lanthanide donor and a delayed reading to cut background.

T1 sequence (P42336 whole entry): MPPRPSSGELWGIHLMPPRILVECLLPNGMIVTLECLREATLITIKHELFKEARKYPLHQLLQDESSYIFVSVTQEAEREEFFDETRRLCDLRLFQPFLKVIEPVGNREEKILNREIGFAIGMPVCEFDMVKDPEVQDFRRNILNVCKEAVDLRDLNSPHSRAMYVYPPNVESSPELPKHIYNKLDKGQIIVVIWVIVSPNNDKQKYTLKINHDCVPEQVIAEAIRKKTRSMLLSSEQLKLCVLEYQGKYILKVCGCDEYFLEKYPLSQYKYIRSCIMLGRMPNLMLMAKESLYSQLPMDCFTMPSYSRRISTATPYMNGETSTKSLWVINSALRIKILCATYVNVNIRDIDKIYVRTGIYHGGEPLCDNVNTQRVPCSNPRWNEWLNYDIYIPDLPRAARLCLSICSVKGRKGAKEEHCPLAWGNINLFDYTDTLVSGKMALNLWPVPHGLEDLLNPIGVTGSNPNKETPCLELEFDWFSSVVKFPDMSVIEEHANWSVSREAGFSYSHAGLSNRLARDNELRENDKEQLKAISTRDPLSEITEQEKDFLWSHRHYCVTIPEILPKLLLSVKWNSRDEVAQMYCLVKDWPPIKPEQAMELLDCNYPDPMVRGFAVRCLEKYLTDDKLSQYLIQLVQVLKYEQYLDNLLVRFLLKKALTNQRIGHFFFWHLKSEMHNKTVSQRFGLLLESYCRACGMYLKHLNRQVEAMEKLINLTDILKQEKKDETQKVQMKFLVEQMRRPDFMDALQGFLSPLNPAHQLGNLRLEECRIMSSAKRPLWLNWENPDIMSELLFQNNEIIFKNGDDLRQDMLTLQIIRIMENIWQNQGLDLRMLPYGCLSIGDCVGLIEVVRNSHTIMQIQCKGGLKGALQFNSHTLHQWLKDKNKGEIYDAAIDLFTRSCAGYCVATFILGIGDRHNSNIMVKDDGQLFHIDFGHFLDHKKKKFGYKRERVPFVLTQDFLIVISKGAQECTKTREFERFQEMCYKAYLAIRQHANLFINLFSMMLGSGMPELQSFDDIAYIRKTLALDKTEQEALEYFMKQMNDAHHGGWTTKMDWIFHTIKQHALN
T1 sequence (P27986 whole entry partner): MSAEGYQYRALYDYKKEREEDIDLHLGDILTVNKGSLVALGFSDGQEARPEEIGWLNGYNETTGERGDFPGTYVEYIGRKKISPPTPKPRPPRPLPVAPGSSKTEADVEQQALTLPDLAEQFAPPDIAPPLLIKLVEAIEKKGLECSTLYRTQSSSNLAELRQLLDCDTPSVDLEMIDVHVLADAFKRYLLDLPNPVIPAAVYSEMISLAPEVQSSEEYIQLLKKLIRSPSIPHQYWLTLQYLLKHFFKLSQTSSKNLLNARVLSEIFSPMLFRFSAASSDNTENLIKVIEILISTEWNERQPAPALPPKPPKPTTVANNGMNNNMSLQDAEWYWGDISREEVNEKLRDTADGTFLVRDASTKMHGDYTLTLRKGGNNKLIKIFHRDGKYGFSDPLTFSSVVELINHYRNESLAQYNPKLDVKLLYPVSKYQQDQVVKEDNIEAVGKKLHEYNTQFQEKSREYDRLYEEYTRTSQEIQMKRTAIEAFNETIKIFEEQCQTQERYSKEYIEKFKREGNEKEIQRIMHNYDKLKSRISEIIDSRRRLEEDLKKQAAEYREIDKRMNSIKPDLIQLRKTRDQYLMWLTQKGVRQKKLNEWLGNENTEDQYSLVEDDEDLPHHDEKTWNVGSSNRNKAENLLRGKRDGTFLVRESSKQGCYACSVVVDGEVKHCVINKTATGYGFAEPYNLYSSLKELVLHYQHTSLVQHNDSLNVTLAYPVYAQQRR
T2 sequence (P42338 whole entry): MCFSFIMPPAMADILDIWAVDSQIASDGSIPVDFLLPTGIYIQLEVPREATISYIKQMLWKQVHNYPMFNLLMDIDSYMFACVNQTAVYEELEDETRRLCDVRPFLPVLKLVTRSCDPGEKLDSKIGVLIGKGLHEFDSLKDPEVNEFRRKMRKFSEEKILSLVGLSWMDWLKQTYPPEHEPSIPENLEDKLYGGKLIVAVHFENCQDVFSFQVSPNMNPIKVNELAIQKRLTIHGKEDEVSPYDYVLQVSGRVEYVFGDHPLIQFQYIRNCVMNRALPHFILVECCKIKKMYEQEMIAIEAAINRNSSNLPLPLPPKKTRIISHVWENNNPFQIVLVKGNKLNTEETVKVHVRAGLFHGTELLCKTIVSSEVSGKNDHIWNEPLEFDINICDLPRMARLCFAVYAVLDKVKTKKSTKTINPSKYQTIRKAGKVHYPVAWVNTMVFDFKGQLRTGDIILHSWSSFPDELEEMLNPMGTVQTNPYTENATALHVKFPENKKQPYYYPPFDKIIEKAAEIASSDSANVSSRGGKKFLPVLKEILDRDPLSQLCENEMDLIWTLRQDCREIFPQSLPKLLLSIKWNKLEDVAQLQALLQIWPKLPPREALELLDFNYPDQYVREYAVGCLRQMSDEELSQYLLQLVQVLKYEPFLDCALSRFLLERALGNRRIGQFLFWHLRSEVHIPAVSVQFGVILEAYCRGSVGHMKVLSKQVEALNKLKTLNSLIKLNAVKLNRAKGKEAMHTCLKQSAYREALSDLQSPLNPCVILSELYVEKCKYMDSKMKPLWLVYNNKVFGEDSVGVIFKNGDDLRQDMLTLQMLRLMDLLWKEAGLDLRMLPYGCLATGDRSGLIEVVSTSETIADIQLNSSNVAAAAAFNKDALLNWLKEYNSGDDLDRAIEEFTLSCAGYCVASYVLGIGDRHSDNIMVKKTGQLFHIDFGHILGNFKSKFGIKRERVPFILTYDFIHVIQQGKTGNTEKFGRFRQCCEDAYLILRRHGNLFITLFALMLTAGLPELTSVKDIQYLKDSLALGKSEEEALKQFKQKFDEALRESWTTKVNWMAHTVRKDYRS
T2 sequence (P27986 whole entry partner): as the sequence (P27986 whole entry partner) above

In the case of `CNc1cc(-c2cc(C(O)c3ccc(Cl)cc3)c(-c3nnc[nH]3)s2)ccn1` (centres unmarked) [Compound 62], the values for the IC50 in assay [1] and in assay [2] were above 1000 nM and 100 to 1000 nM, respectively.

`CC(=O)Nc1cc(-c2sc(C(=O)O)c(Cc3ccc(Cl)cc3)c2C#N)ccn1` [Compound 74]: the IC50 in assay [1] and in assay [2] was 100 to 1000 nM in each case.

With `Cc1noc(C)c1-c1cc(C(O)c2ccc(Cl)cc2)c(-c2nnc[nH]2)s1` (centres unmarked) [Compound 34], the IC50 in assay [1] is above 1000 nM; in assay [2], 100 to 1000 nM.

Turning to `CC(=O)Nc1cc(-c2nc(Cc3ccccc3Cl)c(-c3ncc[nH]3)s2)ccn1` [Compound 67], the IC50 in assay [1] is 100 to 1000 nM; in assay [2], above 1000 nM.

As to `COC(c1ccc(Cl)cc1)c1cc(-c2ccncc2)sc1-c1nnc[nH]1` (centres unmarked) [Compound 6, 4-[4-[(4-chlorophenyl)(methoxy)methyl]-5-(4H-1,2,4-triazol-3-yl)-2-thienyl]pyridine], the figures for the IC50 in assay [1] and in assay [2] were above 1000 nM and 100 to 1000 nM, respectively.

For the compound `Cc1nn2ccc(CNC(=N)N)cc2c1-c1nc(Cc2ccc(Cl)cc2)c(-c2nnc[nH]2)s1` [Compound 35, N-({3-[4-(4-chlorobenzyl)-5-(4H-1,2,4-triazol-3-yl)-1,3-thiazol-2-yl]-2-methylpyrazolo[1,5-a]pyridin-5-yl}methyl)guanidine], the IC50 in assay [1] and in assay [2] was 100 to 1000 nM in each case.

Consider `CN(C)C(c1ccc(Cl)cc1)c1cc(-c2ccncc2)sc1-c1nnc[nH]1` (centres unmarked) [Compound 9, 1-(4-chlorophenyl)-N,N-dimethyl-1-[5-pyridin-4-yl-2-(4H-1,2,4-triazol-3-yl)-3-thienyl]methanamine], for which the IC50 in assay [1] is above 1000 nM; in assay [2] it was below 100 nM.

For the compound `Clc1ccc(Cc2nc(-c3ccnnc3)sc2-c2nnc[nH]2)cc1` [Compound 39], the half-maximal inhibitory concentration (IC50) in assay [1] is above 1000 nM; in assay [2], 100 to 1000 nM.

Turning to `CC(=O)Nc1cc(-c2nc(Cc3ccc(Cl)cc3)c(-c3ncc[nH]3)s2)ccn1` [Compound 73], the half-inhibitory concentration (IC50) was above 1000 nM in assay [1] and 100 to 1000 nM in assay [2].

On to `O=C(O)c1sc(N2CCOCC2)nc1Cc1ccc2c(c1)OCCO2` [Compound 110, 4-(2,3-dihydro-1,4-benzodioxin-6-ylmethyl)-2-(morpholin-4-yl)-1,3-thiazole-5-carboxylic acid], for which the inhibition at 1.1 µM in assay [1] (at a 1.1 μM concentration, read-out: PI3Kα Percent Inhibition) was 5%; in assay [2] (at a 1.1 μM concentration, read-out: PI3β Percent Inhibition), 41%.

`N#Cc1cc(-c2cc([C@H](O)c3ccc(Cl)cc3)c(-c3nnc[nH]3)s2)ccn1` [Compound 3]: the results for the half-maximal inhibitory concentration (IC50) in assay [1] and in assay [2] were above 1000 nM and below 100 nM, respectively.

On to `Cc1nn2ccc(CNCCNC(=O)OC(C)(C)C)cc2c1-c1nc(Cc2ccc(Cl)cc2)c(-c2nnc[nH]2)s1` [Compound 82], for which the IC50 in assay [1] and in assay [2] was 100 to 1000 nM each time.

Take `OC(c1ccc(Cl)cc1)c1cc(-c2ccnc3ccsc23)sc1-c1nnc[nH]1` (centres unmarked) [Compound 13]: the IC50 in assay [1] and in assay [2] was below 100 nM each time.

For the compound `O[C@H](c1ccc(Cl)cc1)c1nc(-c2ccncc2)sc1-c1nnc[nH]1` (single isomer, unassigned) [Compound 19, (4-chlorophenyl)[2-pyridin-4-yl-5-(1H-1,2,4-triazol-3-yl)-1,3-thiazol-4-yl]methanol], the 50% inhibitory concentration (IC50) in assay [1] was above 1000 nM; in assay [2], below 100 nM.

Take `O[C@H](c1ccc(Cl)cc1)c1cc(-c2ccncc2)sc1-c1nnc[nH]1` [Compound 77]: the figures for the IC50 in assay [1] and in assay [2] were above 1000 nM and below 100 nM, respectively.

As to `OC(c1ccc(Cl)cc1)c1cc(-c2ccnnc2)sc1-c1nnc[nH]1` (centres unmarked) [Compound 79], the IC50 is above 1000 nM in assay [1] and 100 to 1000 nM in assay [2].

With `Cc1nn2ccc(CN3CCC(N)CC3)cc2c1-c1nc(Cc2ccc(Cl)cc2)c(-c2nnc[nH]2)s1` [Compound 61], the IC50 in assay [1] and in assay [2] was 100 to 1000 nM each time.

With `Nc1nccc(-c2cc(C(O)c3ccc(Cl)cc3)c(-c3nnc[nH]3)s2)n1` (centres unmarked) [Compound 23], the IC50 in assay [1] is above 1000 nM; in assay [2] it was 100 to 1000 nM.

On to `OC(c1ccc(Cl)cc1)c1cc(-c2ccnc(-n3ccnc3)c2)sc1-c1nnc[nH]1` (centres unmarked) [Compound 28], for which the concentration for half-maximal inhibition (IC50) in assay [1] and in assay [2] was 100 to 1000 nM throughout.
